Values of other authors in paper PMC10326281, “Insights into the mechanisms governing P01 scorpion toxin effect against U87 glioblastoma cells oncogenesis” (Frontiers in Pharmacology, 2023).
Where two headings read alike, the source gives them in different places. Bridges are numbered along the chain shown (N, C = ends). Where no end group is shown, it is not given here.

Columns and labels:
Kv1.3 potassium channel = conditions: ref Wang, 2004; cited from earlier work
Description: (§1) Recently, the anticancer activities of some natural peptides/toxins attracted considerable attention in drug discovery and have been the object of several studies showing that they affect tumor growth, induce apoptosis and inhibit cancer metastasis and angiogenesis in vitro and in vivo ([Ding et al., 2014]; [Majc et al., 2022]). Several examples of the activity of these peptides/toxins as well as their effect on K^+ channels have been recently summarized in many reviews.

BKCa channel = conditions: ref Wang, 2004; cited from earlier work
Description: as §1, with “reviews. Thes ...” for “reviews.”

IKCa/SK4 channel = conditions: ref Wang, 2004; cited from earlier work
Description: as §1, with “reviews. Thes ...” for “reviews.”

[1] = system: endometrial cancer cell lines; conditions: ref Wang, 2004; cited from earlier work
Description: as §1, with “reviews. Thes ...” for “reviews.”

[2] = system: pancreatic cancer cell lines; conditions: ref Wang, 2004; cited from earlier work
Description: as §1, with “reviews. Thes ...” for “reviews.”

U87 cells [3] = conditions: ref Pyrko et al., 2005, cited from earlier work
Description: (§2) Thus, P01 and KAaH1 inhibited the U87 cell migration with different mechanisms. […] For instance, PIVL, a Kunitz-type serine protease inhibitor, from the venom of the Tunisian snake Macrovipera lebetina transmediterranea, re ...

integrins = conditions: tumor cell and angiogenic endothelial cell surface; ref Schmitmeier et al., 2005; cited from earlier work
Description: as §2

hSK1 channel [4] = conditions: 2000, cited from earlier work
Description: (§3) Our team has initiated the fractionation of Aa scorpion venom, in order to identify scorpion peptides targeting potassium channels involved in the oncological process. Thus, we succeeded to isolate one peptide well represented in this venom. Based on its N-terminal sequence and its mass fingerprint this peptide corresponded to the P01 toxin, previously described by ([Zerrouk et al., 1996]).

rSK2 channel = conditions: cited from earlier work
Description: as §3

hSK1 channel [5] = conditions: ref Shah and Haylett, 2000, cited from earlier work
Description: This can be explained by the differential expression of either functional SK2 isoforms or other membrane receptors between HEK293 and Jurkat cells.

SK2 channel = conditions: HEK293 cells; ref Hosseini et al., 2001; cited from earlier work
Description: (§4) Besides, it seems that the effect of P01 on U87 cell proliferation is not due only to its blocking activity of SK2 channels, but also by targeting a complex of membrane receptors and/or effectors expressed in U87 cells, including SK2. […] These authors noted that the concentrations necessary for blocking proliferation were higher than those necessary for blocking these ion ...

U87 cells [6] = conditions: ref Abdullaev et al., 2010; cited from earlier work
Description: as §4

charybdotoxin
block of Kv1.3 (Kv1.3 potassium channel): known blocker | block of BKCa (BKCa channel): known blocker | block of IKCa/SK4 (IKCa/SK4 channel): known blocker | proliferation and cell cycle progression [1]: inhibited proliferation and cell cycle progression | proliferation and cell cycle progression [2]: inhibited proliferation and cell cycle progression

contortrostatin
survival (U87 cells [3]; rodent glioma model): prolongation of survival | tumor progression (U87 cells [3]; tumor induced by stereotactic injection of U87 cells): inhibited the tumor (induced by the stereotactically injection of U87 cells) progression | integrin binding (integrins): specifically binds to certain integrins

apamin (CNCKAPETALCARRCQQH-NH2; disulfide 1-11, 3-15; ends not checked; UniProt P01500 28-45, looked up)
IC50 (hSK1 channel [4]; HEK293 cells, ref Shah and Haylett): 8 nM | IC50 (hSK1 channel [4]; HEK 293 cells, ref Strobaek et al.): 3.3 nM | IC50 (rSK2 channel; HEK 293 cells, ref Strobaek et al., 2000): 0.083 nM | IC50 (hSK1 channel [5]; COS-7 cells): 12 nM | IC50 (hSK1 channel [5]; Xenopus oocytes): 0.1 nM

c1ccc2c(c1)c1cc[n+]2CCCCC[n+]2ccc(c3ccccc32)NCCCCCN1 [UCL1848]
IC50 (SK2 channel): 0.12 nM | effect on U87 cell proliferation (U87 cells [6]): no effect

leiurotoxin I: first toxin isolated from Leiurus quintestriatus scorpin (AFCNLRMCQLSCRSLGLLGKCIGDKCECVKH-NH2; disulfide 12-28, 3-21, 8-26; ends not checked; UniProt P16341 1-31, looked up)
IC50 (rSK2 channel; HEK293 cells, ref Hosseini et al., 2001): 0.28 nM
